One data set concerns C57BL/6 mice. Nature of the data set: Retinoid cycle analyses (11-cis-retinyl oxime after bleaching). The data set is classed as in vivo, mouse. The note with it: 200 mg kg−1 bw i.p., compared to DMSO. On the procedure:
To test if treatment with YC-001 affects visual pigment regeneration, we quantified the 11-cis-retinyl oxime extracted from retinas of C57BL/6 mice after different periods of dark adaptation following exposure to bright light. Mice at 6 weeks of age were administered YC-001 at 200 mg kg^−1 bw via i.p. injection. At 30 min following YC-001 administration, eyes were dilated with 1% tropicamide. Mice then were anesthetized with a cocktail containing 20 mg mL^−1 of ketamine and 1.75 mg mL^−1 of xylazine at a dose of 4 μL g^−1 bw. Anesthetized mice were exposed to bright light with an intensity of 10,000 lux for 10 min to bleach about 90% of the rhodopsin pigment. Mice then were returned to the dark for recovery. Animals then were euthanized at 0, 2, 4, 6 or 24 h after bleaching and recovery in the dark, and their eyes were removed and homogenized in 1 mL of 1:1 PBS:ethanol mixture (v/v) containing 40 mM hydroxylamine. […] 11-cis-Retinyl oxime released from the regenerated rhodopsin pigments were separated on an Agilent Sil column (5 μm, 4.6×250 mm) with an isocratic flow of 10% ethyl acetate in hexanes (1.5 mL min^−1) and detected at 325 nm. Amounts of 11-cis-retinyl oximes per eye were quantified by normalizing the peak area to an 11-cis-retinyl oxime standard. 11-cis-Retinyl oximes were quantified in three eye samples per condition, and the means and s.d.s were calculated.

A short description of data set [1]: Metabolic stability in human liver microsomes. The data set is classed as in vitro ADME. As to conditions: 5 μM, with NADPH, vs verapamil. On the procedure: A standard metabolic stability assay was performed in the presence of mouse or human liver microsomes. YC-001 (5 μM) was incubated with the microsomes (0.125 mg mL^−1) resuspended in 0.2 mL of PBS buffer, pH 7.4 composed of 10 mM Na2HPO4, 1.8 mM KH2PO4, 137 mM NaCl, and 2.7 mM KCl. The enzymatic reaction to produce oxidized metabolites was initiated by addition of NADPH (1 mM). Samples were incubated at 37° C. for up to 240 min. Incubation without the cofactor was conducted in parallel to assess NADPH-independent clearance. The reactions were stopped with 0.2 mL of methanol followed by 0.3 mL chloroform. Residual YC-001 was extracted by vigorous shaking. To facilitate phase separation, the samples were spun down for 2 min, 15,000×g. The chloroform fraction was collected, dried down, and the extracted organic compounds were redissolved in 0.2 mL of methanol. To quantify YC-001, the samples were injected onto an Eclipse XDB-C18 column (4.6×150 mm, 5 μm) (Agilent Technologies) equilibrated with solvent composed of 30% acetonitrile in water (v/v), and 0.1% formic acid. YC-001 was eluted in a gradient of acetonitrile in water (30-100%) developed within 15 min at a flow rate of 1 mL min^−1, detected at 350 nm, and quantified by correlating peak areas with known quantities of an original synthetic standard. […]

For the compound `O=C1OCC(c2ccc(Cl)s2)=C1c1cccs1` [YC-001], the “recovery of 11-cis-retinyl oxime after photobleaching” value in the data set on C57BL/6 mice was “little difference”. In addition, the “initial clearance in liver microsomes” value in data set [1] is given as “even higher initial clearance”.

For the origin of these results see patent US12251373B2, “Compounds and methods of treating retinal degeneration” (CASE WESTERN RESERVE UNIVERSITY, priority 2017, dated 2025).
